Literature values in patent US20190275270A1, “SYSTEM AND METHOD FOR ARRESTING DEBILITATING MIGRAINE EVENTS” (priority 2018, published 2019).

Legend:
[1] = target: T1, CB2 (Homo sapiens, UniProt P34972)
[2] = system: nitric oxide (NO) production; details: read-out: inhibits NO production, IC50
[3] = target: T2, CB1 (Homo sapiens, UniProt P21554)
[4] = target: T1, CB2; remark: listed apart in the source
[5] = target: T2, CB1; remark: listed apart in the source
[6] = system: migraine incidences; details: used in a preventative context

T2 sequence (P21554 whole entry, species assumed): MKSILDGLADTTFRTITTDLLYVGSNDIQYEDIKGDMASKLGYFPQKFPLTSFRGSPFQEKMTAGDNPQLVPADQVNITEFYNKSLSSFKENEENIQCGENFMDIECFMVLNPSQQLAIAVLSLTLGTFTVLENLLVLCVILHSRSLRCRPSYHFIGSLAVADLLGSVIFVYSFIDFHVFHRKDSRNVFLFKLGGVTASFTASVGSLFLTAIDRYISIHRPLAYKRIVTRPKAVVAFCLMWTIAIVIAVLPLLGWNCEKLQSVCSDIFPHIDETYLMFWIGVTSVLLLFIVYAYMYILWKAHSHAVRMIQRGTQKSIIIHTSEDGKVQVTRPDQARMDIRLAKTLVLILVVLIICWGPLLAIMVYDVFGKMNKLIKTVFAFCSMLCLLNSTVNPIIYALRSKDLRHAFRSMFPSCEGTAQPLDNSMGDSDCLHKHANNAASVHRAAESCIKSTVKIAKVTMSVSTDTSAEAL
T1 sequence (P34972 whole entry, species assumed): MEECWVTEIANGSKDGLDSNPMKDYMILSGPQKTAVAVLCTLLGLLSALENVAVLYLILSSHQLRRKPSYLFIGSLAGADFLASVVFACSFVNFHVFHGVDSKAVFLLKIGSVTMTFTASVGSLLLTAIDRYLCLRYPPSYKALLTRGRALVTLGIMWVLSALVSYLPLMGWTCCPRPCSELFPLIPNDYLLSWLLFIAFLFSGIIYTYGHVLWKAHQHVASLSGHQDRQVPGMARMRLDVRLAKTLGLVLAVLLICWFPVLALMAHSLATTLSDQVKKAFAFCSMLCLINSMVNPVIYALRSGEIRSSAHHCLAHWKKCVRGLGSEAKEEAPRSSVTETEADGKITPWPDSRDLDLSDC

Molecule	activity at CB2 [1]	binding to CB2 [4]	binding to CB1 [5]	further results
C=CCc1ccc(O)c(-c2cc(CC=C)ccc2O)c1 [Magnolol]	partial agonist	–	–	IC50 [2]: ~6.2 µM
C=CCc1ccc(O)c(-c2ccc(O)c(CC=C)c2)c1 [honokiol]	antagonistic properties	–	–	activity at CB1 [3]: full agonistic activity
caryophyllene	–	binds	binds	–
C=C(C)[C@@H]1CCC(C)=C[C@H]1c1c(O)cc(CCCCC)cc1O [CBD, cannabidiol]	–	–	–	cut in migraine incidences [6]: more than 50%
CCCCCCC[C@@H](C/C=C/CCC(=O)N(C)C/C(=C/Cl)C/C(=C\C(=O)N1CC(O)CC1=O)OC)OC (stereo partly drawn) [Malyngamide B]	–	moderate potencies	moderate potencies	–
